According to article PMC11382315 (Heliyon, 2024):

What was measured:
[1] = target: T1, HSP90AA1 (Homo sapiens, UniProt P07900); assay: Microscale thermophoresis; format: binding
[2] = tested on: primary human thyrocytes; assay: Observed cytotoxic effects in stimulated primary human thyrocytes; format: cell-based; details: two doses: 10 and 40 μM (β-sitosterol 50 and 150 μM)
[3] = target: T1, HSP90AA1; assay: Limited proteolysis-mass spectrometry; format: binding; details: lysate of dsDNA/dsRNA-stimulated primary human thyrocytes, 0.33 nmol/μg total protein

SMILES | Kd [1] [µM] | cytotoxic effects [2] | interaction with HSP90AA1 by Lip-MS [3] | KD (affinity with HSP90AA1) ([1]; His-tag labeled HSP90AA1 50 nM, ligand 30 nM to 1 mM, PBS)
O=c1c(O)c(-c2ccc(O)cc2)oc2cc(O)cc(O)c12 [kaempferol] | 169 | without observed cytotoxic effects |  | 
O=c1cc(-c2ccc(O)c(O)c2)oc2cc(O)cc(O)c12 [luteolin] | 294 |  | identified as a common interacting protein target | 
O=c1c(O)c(-c2ccc(O)cc2O)oc2cc(O)cc(O)c12 [morin] | 123 | without observed cytotoxic effects | identified as a common interacting protein target | 
O=c1c(O)c(-c2ccc(O)c(O)c2)oc2cc(O)cc(O)c12 [quercetin] |  | without observed cytotoxic effects | identified as a common interacting protein target | 
CC[C@H](CC[C@@H](C)[C@H]1CC[C@H]2[C@@H]3CC=C4C[C@@H](O)CC[C@]4(C)[C@H]3CC[C@]12C)C(C)C [β-sitosterol] |  | without observed cytotoxic effects |  | no binding affinity
